Measurements as given in US11878015B2, “Piperidine-substituted Mnk inhibitors and methods related thereto” (eFFECTOR Therapeutics Inc., priority 2017, dated 2024).
Like-named read-outs stand apart in the source and are kept apart here.

What was measured:
PD-1 = PD-1 (CD279) expression on PHA/PMA-activated Jurkat T cells, flow cytometry; type: cell-based; details: Homo sapiens, percentage of inhibition of PD-1 positive cells at 10 μM, 48 hours
Description: To examine the effect of MNK inhibitors on PD-1 expression, Jurkat cells (Clone E6.1, ATCC, transformed T cells) were used, which express PD-1 when activated through T cell receptor (TCR) signaling. Briefly, Jurkat cells were grown in 1×RPMI with 1×Pen/Strep, and 10% FBS, then about 3×10^6 Jurkat cells were activated in presence of 1 μg/mL PHA (Sigma) and 50 ng/mL PMA (Sigma). Test Cells were treated simultaneously with various concentrations of an MNK inhibitor (0, 0.01, 0.1, 1, 3 and 10 μM). After 48 hours, culture supernatants were harvested and examined via sandwich ELISA for the presence of IL-2 using human IL-2 ELISA DuoSet (R&D Systems, Minneapolis, Minn.). The level of PD-1 on Jurkat cells was examined by incubating with human FcR block, then contacted with allophycocyanin (APC) conjugated anti-PD-1 antibody (5 μl per 100 μl volume of test, Biolegend, San Diego, CA) for 25 minutes at 4° C., without washing the cells, fixable dead cell stain (1:10,000; BD Biosciences, San Jose, CA) was added and incubated further for 10 minutes at 4° C. Cells were washed two times with flow buffer, and finally cells were fixed with fixation buffer for 15 minutes at 4° C. After fixation, cells were washed twice with flow buffer and re-suspended in flow buffer and assessed for fluorescence using BD Accuri C6 flow cytometer. Data were analyzed using the C6 cytometer software (BD Biosciences, San Jose, CA) or Attune Nxt Cytometer (Invitrogen, Carlsbad, CA).
Activation of Jurkat T cells with PHA and PMA induced the expression of PD-1 on the cell surface of about 25-30% of the stimulated Jurkat cells as compared to uninduced cells (Unstim) and induced a 1,000-fold increase in IL-2 cytokine production, respectively. […] Lastly, MNK inhibition by various different MNK inhibitors had no effect on cell viability. […] To this end, percentage of inhibition of PD-1 positive cells (10 μM) of more than 50% are labelled as “+++”, from 10% to 50% are labelled as “++”, and less than 10% are labelled as “+” (NA means “not available”).

Phosphorylated eIF4E = test: peIF4E signaling cellular assay (CisBio peIF4E HTRF); type: cell-based; details: 2 hrs incubation at 37° C., 12-point curve 20 μM to 0.1 nM; read-out: pEI4IE signaling activity
Description: Phosphorylated eIF4E is assayed using the CisBio peIF4E HTRF® assay kit (CisBio, catalogue No. 64EF4PEG). Cells are plated in 96-well tissue-culture treated plate in appropriate growth medium (90 μL). Compounds (10×) are diluted using 3-fold serial dilutions in cell culture medium and added to cells. Plates are incubated for 2 hrs at 37° C. The cell supernatant is carefully removed either by aspirating supernatant or by flicking the plate. Immediately 50 μL of supplemented lysis buffer (1×) is added and incubated for at least 30 minutes at room temperature under shaking. After homogenization by pipeting up and down, 16 μL of cell lysate is transferred from the 96-well cell-culture plate to a 384-well small volume white plate. 4 μL of premixed antibody solutions (vol/vol) is prepared in the detection buffer and added. The plate is covered with a plate sealer and incubated overnight at room temperature. The fluorescence emissions at two different wavelengths are read (665 nm and 620 nm) on a Wallac Victor2. Emission ratios are converted into percent inhibitions and imported into GraphPad Prism software. […] IC50 values are determined using a nonlinear regression model available in GraphPad Prism 5.
To this end, IC50 values of less than 0.001 μM are labelled as “+++”, from 0.001 to 0.01 μM are labelled as “++”, and greater than 0.01 μM are labelled as “+” (NA means “not available”).

[1] = High throughput thermodynamic solubility procedure; type: physicochemical; details: for solubility at 18 h: thermodynamic from solid, 18 hours incubation, theoretical maximum 10 mM; for solubility in fasted state simulated gastric fluid (FaSSGF), in words: pH value of 1.6
Description: In a 96-well plate, 10 mM DMSO stocks (50-100 uL) of each compound were dried under heated nitrogen flow using a SPE-96 plate dryer (upper flow rate=50 L/min, temperature=60° C., lower flow rate=20 L/min, temperature=80° C.). […] Compounds prepared as the free base were assessed in conditions with and without one equivalent of TFA added. The theoretical maximum concentrations of the aqueous solutions were 10 mM. Each well was capped and incubated for a period of 18 hours at room temperature or 37° C. Mixing of the solutions during the incubation period was performed by either shaking the plate at 750 rpm or adding StirStix (stainless steel capillaries) and agitating the mixture using a rotary magnetic tumble stirrer. After the incubation period, aliquots from each well were filtered. Solubility of all samples were quantified following comparison to standards of known concentration by HPLC-UV.

[2] = Fasted-State Simulated Intestinal Fluid (FaSSIF), pH 6.5, fassif, Fasted-State Simulated Intestinal Fluid, read-out: Aqueous Solubility FaSSIF (pH 6.5)
[3] = deionized water, read-out: Aqueous Solubility DI H2O

SMILES | inhibition at 10 µM (PD-1) [%] | IC50 (Phosphorylated eIF4E) [nM] | solubility at 18 h [1, 2] | solubility at 18 h [1, 3] | solubility in fasted state simulated gastric fluid (FaSSGF), in words [1]
Cc1cc(Nc2ncnc(N)c2Cl)c(=O)n2c1C(=O)NC21CCN(C)CC1(C)C (stereo not shown) [Compound 3DD] | > 50 | < 1 | 130 µM | 2100 µM | –
Cc1cc(Nc2ncnc(N)c2C)c(=O)n2c1C(=O)NC21CCN(CC2(F)CC2)CC1 [Compound 3HH] | < 10 | 1 to 10 | 18 µM | – | –
Cc1cc(Nc2ncnc(N)c2Cl)c(=O)n2c1C(=O)N[C@]21CCCNC1 [Compound 3K] | > 50 | > 10 | 158 µg/mL | 1530 µg/mL | excellent solubility
Cc1cc(Nc2ncnc(N)c2Cl)c(=O)n2c1C(=O)N[C@@]21CCCNC1 [Compound 3L] | > 50 | 1 to 10 | 70 µM | 3200 µM | excellent solubility
Cc1cc(Nc2ncnc(N)c2Cl)c(=O)n2c1C(=O)NC21CNCCC1(C)C (stereo not shown) [Compound 3S] | > 50 | 1 to 10 | 600 µM | 4200 µM | –
Cc1cc(Nc2ncnc(N)c2C)c(=O)n2c1C(=O)NC21CNCCC1(C)C (stereo not shown) [Compound 3T] | 10 to 50 | > 10 | 500 µM | 10000 µM | –
